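Dose response: 5 concentrations. Exposure: 48 h. Format: 96-well plates. Endpoint: linear interpolation; highest concentration if not reached. Definition used: TGI = concentration required for complete inhibition of growth.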
Experiments:
Assay in all cases: NCI tumour cell line growth inhibition, 48 h
[1] = tested on: HCC-2998 colon
[2] = tested on: HCT-116 colon
[3] = tested on: CAKI-1 renal
[4] = tested on: DLD-1 colon
[5] = tested on: SF-268 CNS
[6] = tested on: HCT-15 colon
[7] = tested on: SF-539 CNS
[8] = tested on: SNB-19 CNS
[9] = tested on: K-562 leukemia
[10] = tested on: NCI-H23 lung
[11] = tested on: UACC-257 melanoma
[12] = tested on: SK-MEL-2 melanoma
[13] = tested on: U251 CNS
[14] = tested on: OVCAR-3 ovarian
[15] = tested on: HOP-62 NSCLC
[16] = tested on: TK-10 renal
[17] = tested on: M14 melanoma
[18] = tested on: LOX IMVI melanoma
[19] = tested on: OVCAR-5 ovarian
[20] = tested on: SK-MEL-28 melanoma
[21] = tested on: XF 498 CNS
[22] = tested on: SF-295 CNS
[23] = tested on: NCI-H226 lung
[24] = tested on: NCI-H522 lung
[25] = tested on: MOLT-4 leukemia
[26] = tested on: DMS 114 small cell lung
[27] = tested on: NCI-H460 lung
[28] = tested on: EKVX NSCLC
[29] = tested on: OVCAR-8 ovarian
[30] = tested on: COLO 205 colon
[31] = tested on: SN12C renal
[32] = tested on: MALME-3M melanoma
[33] = tested on: HT29 colon
[34] = tested on: SW-620 colon
[35] = tested on: SK-MEL-5 melanoma
[36] = tested on: SNB-75 CNS
[37] = tested on: M19-MEL melanoma
[38] = tested on: A549 NSCLC
[39] = tested on: ACHN renal
[40] = tested on: UO-31 renal
[41] = tested on: 786-0 renal
[42] = tested on: DMS 273 small cell lung
[43] = tested on: OVCAR-4 ovarian
[44] = tested on: CCRF-CEM leukemia
[45] = tested on: SR leukemia
[46] = tested on: MDA-MB-231 breast
[47] = tested on: UACC-62 melanoma
[48] = tested on: DU-145 prostate
[49] = tested on: HS 578T breast
[50] = tested on: T-47D breast
[51] = tested on: RXF 393 renal
[52] = tested on: KM12 colon
[53] = tested on: SK-OV-3 ovarian
[54] = tested on: NCI/ADR-RES ovarian
[55] = tested on: PC-3 prostate
[56] = tested on: MDA-MB-435
[57] = tested on: MCF7 breast
[58] = tested on: HOP-92 NSCLC
[59] = tested on: IGROV1 ovarian
[60] = tested on: RPMI-8226 leukemia
[61] = tested on: A498 renal
[62] = tested on: BT-549 breast
[63] = tested on: HL-60(TB) leukemia
[64] = tested on: MDA-N
[65] = tested on: KM20L2 colon
[66] = tested on: SNB-78 CNS
[67] = tested on: LXFL 529 NSCLC

`CC(=O)Nc1ccc(C(=O)N2N=C(C)/C(=C/c3cccc(O)c3)C2=O)cc1` was tested, and the TGI [1] was greater than 100 µM, the TGI [2] was greater than 100 µM and the TGI [3] was greater than 100 µM. For the same compound, the TGI [4] was greater than 100 µM, the TGI [5] was greater than 100 µM and the TGI [6] was greater than 100 µM. For the same compound, the TGI [7] was greater than 100 µM, the TGI [8] was greater than 100 µM and the TGI [9] was greater than 100 µM. It also gave a TGI [10] greater than 100 µM, a TGI [11] greater than 100 µM and a TGI [12] greater than 100 µM. For the same compound, the TGI [13] was greater than 100 µM, the TGI [14] was greater than 100 µM and the TGI [15] was greater than 100 µM. For the same compound, the TGI [16] was greater than 100 µM, the TGI [17] was greater than 100 µM and the TGI [18] was greater than 100 µM. The TGI [19] was greater than 100 µM, the TGI [20] was greater than 100 µM and the TGI [21] was greater than 100 µM. For the same compound, the TGI [22] was greater than 100 µM, the TGI [23] was greater than 100 µM and the TGI [24] was greater than 100 µM. For the same compound, the TGI [25] was greater than 100 µM, the TGI [26] was greater than 100 µM and the TGI [27] was greater than 100 µM. For the same compound, the TGI [28] was greater than 100 µM, the TGI [29] was greater than 100 µM and the TGI [30] was greater than 100 µM. The TGI [31] was greater than 100 µM, the TGI [32] was greater than 100 µM and the TGI [33] was greater than 100 µM. For the same compound, the TGI [34] was greater than 100 µM, the TGI [35] was greater than 100 µM and the TGI [36] was greater than 100 µM. The TGI [37] was greater than 100 µM, the TGI [38] was greater than 100 µM and the TGI [39] was greater than 100 µM. The TGI [40] was greater than 100 µM, the TGI [41] was greater than 100 µM and the TGI [42] was greater than 100 µM. For the same compound, the TGI [43] was greater than 100 µM and the TGI [44] was greater than 100 µM.

In the case of `Cc1cc(S(=O)(=O)NC(=NCC(=O)NN)NN)c(S)cc1Cl`, the TGI [45] is reported as greater than 10 µM, the TGI [1] is reported as greater than 10 µM and the TGI [46] is reported as greater than 10 µM. It also gave a TGI [2] greater than 10 µM, a TGI [47] greater than 10 µM and a TGI [3] greater than 10 µM. For the same compound, the TGI [48] was greater than 10 µM, the TGI [49] was greater than 10 µM and the TGI [50] was greater than 10 µM. The TGI [51] was greater than 10 µM, the TGI [52] was greater than 10 µM and the TGI [5] was greater than 10 µM. For the same compound, the TGI [6] was greater than 10 µM, the TGI [53] was greater than 10 µM and the TGI [7] was greater than 10 µM. The TGI [8] was greater than 10 µM, the TGI [9] was greater than 10 µM and the TGI [10] was greater than 10 µM. For the same compound, the TGI [11] was greater than 10 µM, the TGI [12] was greater than 10 µM and the TGI [13] was greater than 10 µM. The TGI [54] was greater than 10 µM, the TGI [14] was greater than 10 µM and the TGI [15] was greater than 10 µM. For the same compound, the TGI [16] was greater than 10 µM, the TGI [55] was greater than 10 µM and the TGI [56] was greater than 10 µM. The TGI [17] was greater than 10 µM, the TGI [18] was greater than 10 µM and the TGI [19] was greater than 10 µM. For the same compound, the TGI [57] was greater than 10 µM, the TGI [20] was greater than 10 µM and the TGI [58] was greater than 10 µM. It also gave a TGI [22] greater than 10 µM, a TGI [23] greater than 10 µM and a TGI [24] greater than 10 µM. For the same compound, the TGI [25] was greater than 10 µM, the TGI [59] was greater than 10 µM and the TGI [27] was greater than 10 µM. The TGI [28] was greater than 10 µM, the TGI [29] was greater than 10 µM and the TGI [30] was greater than 10 µM. It also gave a TGI [60] greater than 10 µM, a TGI [31] greater than 10 µM and a TGI [32] greater than 10 µM. It also gave a TGI [33] greater than 10 µM, a TGI [34] greater than 10 µM and a TGI [61] greater than 10 µM. The TGI [35] was greater than 10 µM, the TGI [36] was greater than 10 µM and the TGI [38] was greater than 10 µM. For the same compound, the TGI [39] was greater than 10 µM, the TGI [41] was greater than 10 µM and the TGI [62] was greater than 10 µM. For the same compound, the TGI [63] was greater than 10 µM, the TGI [64] was greater than 10 µM and the TGI [43] was greater than 10 µM. The TGI [44] was greater than 10 µM.

Work on `Cc1ccc(Nc2nnc3n2S(=O)(=O)c2cc(C)c(Cl)cc2S3)cc1` yielded a TGI [45] of 7.85 µM, a TGI [1] of 55.8 µM and a TGI [46] of 82.4 µM. It also gave a TGI [2] of 67.2 µM, a TGI [3] of 66.1 µM and a TGI [48] greater than 100 µM. The TGI [49] was 8.67 µM, the TGI [50] was greater than 100 µM and the TGI [51] was 49.1 µM. It also gave a TGI [52] greater than 100 µM, a TGI [5] of 18.4 µM and a TGI [6] of 51.3 µM. For the same compound, the TGI [7] was 14.7 µM, the TGI [9] was 23.8 µM and the TGI [10] was 48.3 µM. The TGI [11] was greater than 100 µM, the TGI [12] was 67.1 µM and the TGI [13] was 59.2 µM. For the same compound, the TGI [54] was 43.5 µM, the TGI [14] was 4.63 µM and the TGI [15] was 51.8 µM. It also gave a TGI [16] greater than 100 µM, a TGI [55] of 27.3 µM and a TGI [56] of 70.4 µM. It also gave a TGI [17] of 47.4 µM, a TGI [18] of 65.2 µM and a TGI [19] of 74.8 µM. It also gave a TGI [57] greater than 100 µM, a TGI [20] greater than 100 µM and a TGI [58] of 83.1 µM. It also gave a TGI [22] of 25.7 µM, a TGI [23] of 37.4 µM and a TGI [24] of 5.66 µM. It also gave a TGI [25] of 32.7 µM, a TGI [59] greater than 100 µM and a TGI [27] greater than 100 µM. The TGI [28] was 87.4 µM, the TGI [29] was 33.1 µM and the TGI [60] was 54.9 µM. The TGI [33] was 38.5 µM, the TGI [34] was greater than 100 µM and the TGI [61] was 89.2 µM. The TGI [35] was 29.6 µM, the TGI [36] was 73.4 µM and the TGI [38] was 61.6 µM. For the same compound, the TGI [39] was greater than 100 µM, the TGI [40] was 81.3 µM and the TGI [41] was 35.5 µM. It also gave a TGI [62] of 31.3 µM, a TGI [63] of 9.33 µM and a TGI [64] of 4.33 µM. For the same compound, the TGI [43] was greater than 100 µM.

Work on `O=C(CCN1CCCCC1CO)Nc1ccc2c(c1)C(=O)c1ccc(NC(=O)CCN3CCCCC3CO)cc1C2=O` (configuration not stated) yielded a TGI [45] of 68.9 µM, a TGI [65] of 76.4 µM and a TGI [1] of 20.8 µM. For the same compound, the TGI [2] was 19.6 µM, the TGI [47] was 23.6 µM and the TGI [3] was 57.6 µM. For the same compound, the TGI [51] was 7.45 µM, the TGI [52] was 17.1 µM and the TGI [5] was 40.6 µM. For the same compound, the TGI [6] was 54 µM, the TGI [53] was 46.2 µM and the TGI [7] was 16.1 µM. The TGI [8] was 31.2 µM, the TGI [9] was 46.1 µM and the TGI [10] was 38.1 µM. It also gave a TGI [66] of 34.6 µM, a TGI [11] of 91.3 µM and a TGI [12] of 18.8 µM. It also gave a TGI [13] of 20.6 µM, a TGI [15] of 64.2 µM and a TGI [16] of 27.2 µM. For the same compound, the TGI [17] was 22.4 µM, the TGI [18] was 20.8 µM and the TGI [19] was 67.5 µM. It also gave a TGI [20] of 28.4 µM, a TGI [58] of 37.2 µM and a TGI [22] of 62.6 µM. The TGI [23] was 52.5 µM, the TGI [24] was 20.6 µM and the TGI [25] was 35.7 µM. For the same compound, the TGI [59] was 23.1 µM, the TGI [26] was 30.9 µM and the TGI [27] was 24.2 µM. For the same compound, the TGI [28] was 47 µM, the TGI [29] was 39.6 µM and the TGI [30] was 21.7 µM. For the same compound, the TGI [60] was 48 µM, the TGI [31] was 25.5 µM and the TGI [32] was 18.8 µM. The TGI [33] was 31.6 µM, the TGI [34] was 27 µM and the TGI [61] was 9.87 µM. The TGI [35] was 29 µM, the TGI [37] was 29.3 µM and the TGI [38] was 82.4 µM. For the same compound, the TGI [67] was 9.71 µM, the TGI [39] was 32 µM and the TGI [40] was 26.7 µM. The TGI [41] was 6.58 µM, the TGI [63] was 29.8 µM and the TGI [42] was 19.2 µM. The TGI [43] was 27.1 µM and the TGI [44] was 30.5 µM.

Reference: PubChem BioAssay (NCI)
